The supplement of paper PMC10307832

Assays:
Experiment in all cases: relative viability (nuclei count vs DMSO), 5 days (fraction); higher = more cells survive
NCI-H1915 = system: NCI-H1915
In short: (§1)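 Lung cancer cell lines in 1536-well plates were dosed by pin tool the day after seeding, either with one drug alone or with a fixed anchor-drug dose plus five library-drug doses (not always all listed) in √10 steps. After 5 days, cells were fixed and their nuclei stained in one step (final 0.05% Triton X-100, 1% formaldehyde, 1 ug/ml Hoechst), then counted on 4× images. Relative viability is the nuclei count in treated wells divided by that in vehicle wells. Values are medians of duplicate plates.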

NCI-H1944 = system: NCI-H1944
In short: as §1

NCI-H2023 = system: NCI-H2023
In short: as §1

NCI-H2126 = system: NCI-H2126
In short: as §1

NCI-H2170 = system: NCI-H2170
In short: as §1

NCI-H23 = system: NCI-H23
In short: as §1

NCI-H322M = system: NCI-H322M
In short: as §1

NCI-H441 = system: NCI-H441
In short: as §1

NCI-H460 = system: NCI-H460
In short: as §1

NCI-H650 = system: NCI-H650
In short: as §1

PC-3 [JPC-3] = system: PC-3 [JPC-3]
In short: as §1

SK-LU-1 = system: SK-LU-1
In short: as §1

Question: Which results are given for `O=C(O)CCCCC(CCSCc1ccccc1)SCc1ccccc1` (configuration not stated) [CPI-613] + CS(=O)(=O)N1CCN(Cc2cc3nc(-c4cccc5[nH]ncc45)nc(N4CCOCC4)c3s2)CC1 [Pictilisib] (partner 1 µM)?
Answer: relative viability (NCI-H1915; first compound 158.11 µM): 0.927; relative viability (NCI-H1915; first compound 500 µM): 0.503; relative viability (NCI-H1944; first compound 5 µM): 0.336; relative viability (NCI-H1944; first compound 15.81 µM): 0.371; relative viability (NCI-H1944; first compound 50 µM): 0.351; relative viability (NCI-H1944; first compound 158.11 µM): 0.347; relative viability (NCI-H1944; first compound 500 µM): 0.332; relative viability (NCI-H2023; first compound 5 µM): 0.233; relative viability (NCI-H2023; first compound 15.81 µM): 0.218; relative viability (NCI-H2023; first compound 50 µM): 0.231; relative viability (NCI-H2023; first compound 158.11 µM): 0.0548; relative viability (NCI-H2023; first compound 500 µM): 0.0183; relative viability (NCI-H2126; first compound 5 µM): 0.539; relative viability (NCI-H2126; first compound 15.81 µM): 0.457; relative viability (NCI-H2126; first compound 50 µM): 0.499; relative viability (NCI-H2126; first compound 158.11 µM): 0.395; relative viability (NCI-H2126; first compound 500 µM): 0.393; relative viability (NCI-H2170; first compound 5 µM): 0.293; relative viability (NCI-H2170; first compound 15.81 µM): 0.307; relative viability (NCI-H2170; first compound 50 µM): 0.256; relative viability (NCI-H2170; first compound 158.11 µM): 0.293; relative viability (NCI-H2170; first compound 500 µM): 0.0903; relative viability (NCI-H23; first compound 5 µM): 0.478; relative viability (NCI-H23; first compound 15.81 µM): 0.455; relative viability (NCI-H23; first compound 50 µM): 0.457; relative viability (NCI-H23; first compound 158.11 µM): 0.153; relative viability (NCI-H23; first compound 500 µM): 0.009; relative viability (NCI-H322M; first compound 5 µM): 0.511; relative viability (NCI-H322M; first compound 15.81 µM): 0.426; relative viability (NCI-H322M; first compound 50 µM): 0.496; relative viability (NCI-H322M; first compound 158.11 µM): 0.469; relative viability (NCI-H322M; first compound 500 µM): 0.53; relative viability (NCI-H441; first compound 5 µM): 0.498; relative viability (NCI-H441; first compound 15.81 µM): 0.468; relative viability (NCI-H441; first compound 50 µM): 0.417; relative viability (NCI-H441; first compound 158.11 µM): 0.147; relative viability (NCI-H441; first compound 500 µM): 0.0254; relative viability (NCI-H460; first compound 5 µM): 0.353; relative viability (NCI-H460; first compound 15.81 µM): 0.315; relative viability (NCI-H460; first compound 50 µM): 0.347; relative viability (NCI-H460; first compound 158.11 µM): 0.419; relative viability (NCI-H460; first compound 500 µM): 0.342; relative viability (NCI-H650; first compound 5 µM): 0.805; relative viability (NCI-H650; first compound 15.81 µM): 0.861; relative viability (NCI-H650; first compound 50 µM): 0.855; relative viability (NCI-H650; first compound 158.11 µM): 0.742; relative viability (NCI-H650; first compound 500 µM): 0.736; relative viability (PC-3 [JPC-3]; first compound 5 µM): 0.683; relative viability (PC-3 [JPC-3]; first compound 15.81 µM): 0.617; relative viability (PC-3 [JPC-3]; first compound 50 µM): 0.656; relative viability (PC-3 [JPC-3]; first compound 158.11 µM): 0.636; relative viability (PC-3 [JPC-3]; first compound 500 µM): 0.404; relative viability (SK-LU-1; first compound 5 µM): 0.533; relative viability (SK-LU-1; first compound 15.81 µM): 0.428; relative viability (SK-LU-1; first compound 50 µM): 0.49; relative viability (SK-LU-1; first compound 158.11 µM): 0.46; relative viability (SK-LU-1; first compound 500 µM): 0.264
